In the assay the target is T1, Tyrosine-protein phosphatase non-receptor type 1 (Homo sapiens, UniProt P18031).
T1 sequence (P18031 whole entry): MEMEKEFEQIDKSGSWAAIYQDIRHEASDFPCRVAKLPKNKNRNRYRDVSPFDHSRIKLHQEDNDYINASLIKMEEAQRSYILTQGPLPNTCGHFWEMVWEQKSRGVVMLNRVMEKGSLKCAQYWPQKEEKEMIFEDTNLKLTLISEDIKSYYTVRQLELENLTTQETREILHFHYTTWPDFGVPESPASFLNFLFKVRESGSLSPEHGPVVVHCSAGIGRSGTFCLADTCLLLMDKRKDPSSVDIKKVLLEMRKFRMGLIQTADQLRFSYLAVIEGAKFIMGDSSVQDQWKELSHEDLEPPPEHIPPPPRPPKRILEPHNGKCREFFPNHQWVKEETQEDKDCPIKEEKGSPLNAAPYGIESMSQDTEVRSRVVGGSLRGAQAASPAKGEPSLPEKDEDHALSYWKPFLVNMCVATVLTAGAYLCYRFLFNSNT
Regarding `CCc1cc(CC(NC(C)=O)C(=O)NCCCCOc2cccc(O)c2C(=O)O)ccc1N(C(=O)C(=O)O)c1ccccc1C(=O)O` (stereo unspecified), the Ki (as a rule, the dissociation constant of the complex between target and ligand, obtained from inhibition or displacement) is 0.0316 µM.

Compound `COC(=O)c1c(O)cccc1OC/C=C/c1ccc(F)c(-c2cc(C(=O)O)no2)c1` gave a Ki of 6.31 µM.

`O=C(O)C(=O)Nc1sc2c(c1C(=O)O)CCN(Cc1ccccc1)C2` showed an inhibition constant (Ki) of 63.1 µM.

`O=C(O)C(=O)Nc1sc2c(c1C(=O)O)CCNC2`: the Ki is 50.1 µM.

On to `COC(=O)c1c(O)cccc1OC/C=C/c1ccc2c(c1)-c1onc(C(=O)O)c1CC2`, for which the affinity, expressed as Ki, was 12.6 µM.

`COC(=O)c1c(O)cccc1OC/C=C/c1cccc(-c2onc(C(=O)O)c2N)c1` had a Ki of 15.8 µM.

With `CCCC[C@H](NC(=O)CCCCNC(=O)C(Cc1ccc(N(C(=O)C(=O)O)c2ccccc2C(=O)O)c(CC)c1)NC(C)=O)C(=O)O` (stereo partly specified), the Ki is 0.1 µM.

For `CCc1cc(CC(NC(C)=O)C(=O)NCCCCC(=O)N[C@@H](CCS(C)(=O)=O)C(=O)O)ccc1N(C(=O)C(=O)O)c1ccccc1C(=O)O` (stereo partly specified), affinity was put at a Ki of 0.398 µM.

Regarding `CCc1ccccc1N(C(=O)C(=O)O)c1ccccc1C(=O)O`, the affinity corresponds to a Ki of 39.8 µM.

Consider `COC(=O)c1c(O)cccc1OCCNc1cccc(-c2cc(C(=O)O)no2)c1`, for which the affinity corresponds to a Ki of 50.1 µM.

The compound `O=C(O)C(=O)N(c1ccc2ccccc2c1)c1ccccc1C(=O)O` showed a Ki of 39.8 µM.

In turn, `O=C(O)C(=O)N(c1ccccc1C(=O)O)c1ccccc1N1CCCCC1` gave an inhibition constant Ki of 15.8 µM.

Compound `CCCC[C@H](NC(=O)C(Cc1ccc(N(C(=O)C(=O)O)c2ccccc2C(=O)O)c2ccccc12)NC(=O)OC)C(=O)OC` (stereo partly specified) gave a Ki of 0.398 µM.

Regarding `CCc1cc(CC(NC(C)=O)C(=O)NCCCCC(=O)NC(Cc2nccs2)C(=O)O)ccc1N(C(=O)C(=O)O)c1ccccc1C(=O)O` (stereo unspecified), the inhibition constant Ki was 0.631 µM.

For `CCc1cc(CC(NC(C)=O)C(=O)NCCCCC(=O)NC(Cc2ccc(Cl)cc2)C(=O)O)ccc1N(C(=O)C(=O)O)c1ccccc1C(=O)O` (stereo unspecified), the affinity, expressed as Ki, was 0.631 µM.

Regarding `CCCCCNC(=O)[C@@H](Cc1ccc(N(C(=O)C(=O)O)c2ccccc2C(=O)O)c(/C=C/C(N)=O)c1)NC(=O)NC(C)C`, the Ki is 0.316 µM.

`O=C(O)c1nc2ccccc2s1` showed a Ki of 1000 µM.

As to `CCc1cc(CC(NC(C)=O)C(=O)N[C@H](Cc2ccc([N+](=O)[O-])cc2)C(=O)NC)ccc1N(C(=O)C(=O)O)c1ccccc1C(=O)O` (stereo partly specified), the Ki is 2 µM.

Regarding `CCc1cc(CC(NC(C)=O)C(=O)NCCCCC(=O)N[C@@H](Cc2ccc(O)cc2)C(=O)O)ccc1N(C(=O)C(=O)O)c1ccccc1C(=O)O` (stereo partly specified), the Ki was 0.158 µM.

Turning to `Nc1c(C(=O)O)noc1-c1ccccc1`, the Ki is 316 µM.

`COC(=O)c1c(O)cccc1OCCCCNC(=O)C(Cc1ccc(N(CC(Cc2ccccc2)C(=O)O)C(=O)C(=O)O)cc1)NC(=O)OC(C)(C)C` (stereo unspecified) had a Ki of 5.01 µM.

In turn, `CCCCCNC(=O)[C@H](Cc1ccc(N(C(=O)C(=O)O)c2ccccc2C(=O)O)cc1)NC(=O)[C@H](Cc1ccc(C(=O)c2ccccc2)cc1)NC(=O)OC(C)(C)C` showed a Ki of 1.26 µM.

`CCC(CN(C(=O)C(=O)O)c1ccc(CC(NC(=O)OC(C)(C)C)C(=O)NCCCCOc2cccc(O)c2C(=O)OC)cc1)C(=O)O` (stereo unspecified): affinity was put at a Ki of 1.58 µM.

In the case of `COC(=O)c1c(O)cccc1OCCCCNC(=O)[C@@H](Cc1ccc(OCC(=O)O)c(C(=O)O)c1)NC(=O)OC(C)(C)C`, the Ki was 2 µM.

For `COC(=O)N[C@H](Cc1ccc(N(C(=O)C(=O)O)c2ccccc2C(=O)O)cc1)C(=O)NCCCCOc1cc(OC(C)C)cc(O)c1C(=O)OC`, the Ki was 3.98 µM.

Turning to `COC(=O)N[C@H](Cc1ccc(N(C(=O)C(=O)O)c2ccccc2C(=O)O)cc1)C(=O)NCCCCOc1cc(-c2ccccc2)cc(O)c1C(=O)OC`, affinity was put at a Ki of 1 µM.

`CCc1cc(CC(NC(C)=O)C(=O)NCCCCC(=O)NC(Cc2cccs2)C(=O)O)ccc1N(C(=O)C(=O)O)c1ccccc1C(=O)O` (stereo unspecified) gave a Ki of 0.398 µM.

`CC(C)(C)OC(=O)Nc1ccc(O)c(-c2cc(C(=O)O)no2)c1` gave a Ki of 794 µM.

For `O=C(O)c1cc(-c2cccc(/C=C/COc3cccc(O)c3[N+](=O)[O-])c2)on1`, the affinity, expressed as Ki, was 15.8 µM.

As for `O=C(O)/C=N/OCc1ccccc1`, the affinity, expressed as Ki, was 3160 µM.

In turn, `CC[C@H](C)[C@H](NC(=O)CCCCNC(=O)[C@@H](Cc1ccc(NC(=O)C(=O)O)c(C(=O)O)c1)NC(C)=O)C(=O)O` had an inhibition constant Ki of 20 µM.

Regarding `O=C(O)c1cc(-c2cccc(-c3cccc(-c4cc(C(=O)O)no4)c3)c2)on1`, the Ki was 79.4 µM.

`O=C(O)C(=O)N(c1cc(O)ccc1C(=O)O)c1cccc2ccc(O)cc12`: the Ki is 2 µM.

As to `O=C(O)C(=O)N(c1ccccc1C(=O)O)c1cc([N+](=O)[O-])cc2ccccc12`, the Ki is 10 µM.

In turn, `O=C(O)C(=O)N(c1ccccc1C(=O)O)c1ccccc1N1CCCC(CO)C1` (stereo unspecified) showed a Ki of 20 µM.

Consider `CCCCCNC(=O)C(Cc1ccc(N2CCCCC2)c(N(C(=O)C(=O)O)c2ccccc2C(=O)O)c1)NC(C)=O` (stereo unspecified), for which the Ki is 20 µM.

Turning to `CC(=O)NC(Cc1ccc(N(C(=O)C(=O)O)c2ccccc2C(=O)O)c(CCO)c1)C(=O)O` (stereo unspecified), the Ki is 6.31 µM.

`CCc1cc(CC(NC(C)=O)C(=O)NCCCCC(=O)N[C@@H](CCSC)C(=O)O)ccc1N(C(=O)C(=O)O)c1ccccc1C(=O)O` (stereo partly specified) showed a Ki of 0.0631 µM.

`CCCCCN1C(=O)C(=O)N(C(=O)NC(C)C)[C@H](Cc2ccc(Nc3ccccc3C(=O)O)c(CCC(N)=O)c2)C1=O`: the inhibition constant Ki is 2 µM.

The compound `CCCCCNCc1cccc(-c2cc(C(=O)O)no2)c1` gave a Ki of 501 µM.

Compound `O=C(O)c1ccc(O)cc1-n1c(=O)c(=O)oc2ccccc21` showed a Ki of 1.26 µM.

The compound `COCCC(CN(C(=O)C(=O)O)c1ccc(CC(NC(=O)OC(C)(C)C)C(=O)NCCCCOc2cccc(O)c2C(=O)OC)cc1)C(=O)O` (stereo unspecified) gave a Ki of 7.94 µM.

The compound `CCc1cc(CC(NC(C)=O)C(=O)NCCCCC(=O)NC(C(=O)O)c2c[nH]c3ccccc23)ccc1N(C(=O)C(=O)O)c1ccccc1C(=O)O` (stereo unspecified) had a Ki of 0.251 µM.

`C=CCOC(=O)N[C@@H](Cc1ccc(N(C(=O)C(=O)O)c2ccccc2C(=O)O)cc1)C(=O)NCCOCCOc1cccc(O)c1C(=O)OC` had a Ki of 0.398 µM.

Compound `COC(=O)c1c(O)cccc1OCCCCNC(C)CCc1ccc(N(C(=O)C(=O)O)c2ccccc2C(=O)O)c2ccccc12` (stereo unspecified) gave a Ki of 0.316 µM.

Compound `CN(C(=O)[C@@H](Cc1ccc(N(C(=O)C(=O)O)c2ccccc2C(=O)O)cc1)NC(=O)OC(C)(C)C)C1CCC(C(=O)O)CC1` (stereo partly specified) had a Ki of 10 µM.

In the case of `CCc1cc(CC(NC(C)=O)C(=O)NCCCCC(=O)N[C@@H](Cc2ccccc2)C(=O)O)ccc1N(C(=O)C(=O)O)c1ccccc1C(=O)O` (stereo partly specified), the Ki was 0.126 µM.

`COC(=O)c1c(O)cccc1OCCCCCN1CCc2ccc(N(C(=O)C(=O)O)c3ccccc3C(=O)O)cc2C1` showed a Ki of 10 µM.

As to `CCc1cc(CC(NC(C)=O)C(=O)NCCCCC(=O)N2CCC[C@@H]2C(=O)O)ccc1N(C(=O)C(=O)O)c1ccccc1C(=O)O` (stereo partly specified), the affinity, expressed as Ki, was 2 µM.

`CCc1cc(CC(NC(C)=O)C(=O)NCCCCC(=O)N[C@@H](Cc2ccc([N+](=O)[O-])cc2)C(=O)O)ccc1N(C(=O)C(=O)O)c1ccccc1C(=O)O` (stereo partly specified): the affinity corresponds to a Ki of 0.398 µM.

In the case of `COC(=O)c1c(O)cccc1OCCCCNCCCc1ccc(N(C(=O)C(=O)O)c2ccccc2C(=O)O)c2ccccc12`, the Ki was 0.631 µM.

`CC[C@H](C)[C@H](NC(=O)CCCCNC(=O)[C@@H](Cc1ccc(N(C(=O)C(=O)O)c2ccccc2C(=O)O)cc1)NC(C)=O)C(=O)O`: the Ki is 3.98 µM.

In the case of `CC(=O)NC(Cc1ccc(N(C(=O)C(=O)O)c2ccccc2C(=O)O)c2ccccc12)C(=O)NCCO` (stereo unspecified), the Ki is 12.6 µM.

Compound `CC(=O)NC(Cc1ccc(N(C(=O)C(=O)O)c2ccccc2C(=O)O)c2ccccc12)C(=O)NCCCN1CCCC1=O` (stereo unspecified) gave an inhibition constant (Ki) of 7.94 µM.

The compound `O=C(O)c1noc(-c2cccc(I)c2)c1CO` had a Ki of 126 µM.

Take `O=C(O)C(=O)N(c1ccccc1/C=C/CO)c1ccccc1C(=O)O`: the Ki was 50.1 µM.

In turn, `O=C(O)C(=O)N(c1cc(Cl)ccc1C(=O)O)c1cccc2ccc(O)cc12` gave an inhibition constant (Ki) of 3.98 µM.

The compound `CC(=O)N1CCC(C(=O)Nc2cccc(-c3cc(C(=O)O)no3)c2)CC1` had a Ki of 79.4 µM.

Compound `COC(=O)c1c(O)cccc1OCCCC(=O)Nc1cccc(-c2cc(C(=O)O)no2)c1` gave an inhibitory constant (Ki) of 251 µM.

`COC(=O)c1c(O)cccc1OC(CO)CCc1cc(-c2cc(C(=O)O)no2)ccc1F` (stereo unspecified) showed a Ki of 126 µM.

`CNC(=O)c1c(O)cccc1OC/C=C/c1cccc(-c2cc(C(=O)O)no2)c1` had a Ki of 6.31 µM.

`NC(=O)c1ccc2cccc(N(C(=O)C(=O)O)c3ccccc3C(=O)O)c2c1`: affinity was put at a Ki of 3.98 µM.

For the compound `O=C(O)C(=O)N(c1cc([N+](=O)[O-])ccc1C(=O)O)c1cccc2ccc(O)cc12`, the affinity, expressed as Ki, was 7.94 µM.

The compound `CCc1cc(CC(NC(C)=O)C(=O)NCCCCC(=O)N[C@@H](CSCc2ccccc2)C(=O)O)ccc1N(C(=O)C(=O)O)c1ccccc1C(=O)O` (stereo partly specified) gave a Ki of 0.631 µM.

On to `COc1ccc2c(c1)-c1onc(C(=O)O)c1CC2`, for which the affinity, expressed as Ki, was 631 µM.

`O=C(O)C(=O)N(c1ccc2c(c1)OCCO2)c1ccccc1C(=O)O` showed a Ki of 100 µM.

Regarding `Nc1ccc(-c2cc(C(=O)O)no2)cc1`, the Ki was 3160 µM.

`Cn1ccc2c(N(C(=O)C(=O)O)c3ccccc3C(=O)O)cccc21` had a Ki of 39.8 µM.

Turning to `CCCCCCNC(=O)Nc1ccc(N(C(=O)C(=O)O)c2ccccc2C(=O)O)c2ccccc12`, the affinity, expressed as Ki, was 6.31 µM.

`CCc1cc(CC(NC(C)=O)C(=O)NCCCCC(=O)N[C@@H](CCSC)C(=O)O)ccc1N(C(=O)C(=O)O)c1cc(Cl)ccc1C(=O)O` (stereo partly specified): affinity was put at a Ki of 0.0631 µM.

`O=C(O)C(=O)N(c1ccccc1C(=O)O)c1cccc2ccccc12` gave a Ki of 158 µM.

Values taken from ChEMBL document CHEMBL1158408, “Large-scale application of high-throughput molecular mechanics with Poisson-Boltzmann surface area for routine physics-based scoring of protein-ligand complexes” (J Med Chem, 2009).
